Assay results: ChEMBL document CHEMBL1201862, “PubChem BioAssay data set” (2004)
Activity calls are given as the source filed them.

Tests used:
[1] = biological target: T1, Beta-adrenergic receptor kinase 1 (Homo sapiens, UniProt P25098); experiment: aptamer displacement from bead-bound GRK2 – biochemical, cherry pick 1, bead flow cytometry, dose response (AID 504500)
[2] = biological target: T1, Beta-adrenergic receptor kinase 1; experiment: Inhibitors of aptamer binding to bead-bound beta-adrenergic receptor kinase 1 by flow cytometry, biochemical, cherry pick 2, EC50 (AID 504815)
[3] = biological target: T2, Carboxy-terminal domain RNA polymerase II polypeptide A small phosphatase 1 (Homo sapiens, UniProt Q9GZU7); experiment: inhibitors of CTDSP1, concentration-response testing, biochemical assay, absorbance-based, actives from ultra-high-throughput screening (AID 540297); type: functional
T2 sequence (Q9GZU7 whole entry): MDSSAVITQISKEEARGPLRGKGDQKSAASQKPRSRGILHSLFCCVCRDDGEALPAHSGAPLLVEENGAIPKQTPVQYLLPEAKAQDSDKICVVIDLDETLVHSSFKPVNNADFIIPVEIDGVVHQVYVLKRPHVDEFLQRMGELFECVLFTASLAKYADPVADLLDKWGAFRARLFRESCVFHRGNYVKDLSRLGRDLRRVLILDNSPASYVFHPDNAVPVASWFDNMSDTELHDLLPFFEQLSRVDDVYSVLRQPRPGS

[4] = NIH-3T3 fibroblast cytotoxicity, dose response, cytotoxicity control, cell-based, fluorescence, Alamar Blue, secondary assay (AID 2327); type: functional;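 also: NIH-3T3 mouse fibroblasts cultured with fluconazole at 8 µg/mL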
[5] = C. albicans growth with fluconazole, confirmation, fluorescence, retest (AID 2467); type: functional, cell-based
[6] = biological target: T3, Sphingosine 1-phosphate receptor 4 (Homo sapiens, UniProt O95977); experiment: Fluorescence dose response cell-based high throughput screening assay for antagonists of the Sphingosine 1-Phosphate Receptor 4 (S1P4). [Related pubchem assays: 1524 (Confirmation in triplicates.), 1510 (Primary screen.)]; type: functional
T3 sequence (O95977 whole entry): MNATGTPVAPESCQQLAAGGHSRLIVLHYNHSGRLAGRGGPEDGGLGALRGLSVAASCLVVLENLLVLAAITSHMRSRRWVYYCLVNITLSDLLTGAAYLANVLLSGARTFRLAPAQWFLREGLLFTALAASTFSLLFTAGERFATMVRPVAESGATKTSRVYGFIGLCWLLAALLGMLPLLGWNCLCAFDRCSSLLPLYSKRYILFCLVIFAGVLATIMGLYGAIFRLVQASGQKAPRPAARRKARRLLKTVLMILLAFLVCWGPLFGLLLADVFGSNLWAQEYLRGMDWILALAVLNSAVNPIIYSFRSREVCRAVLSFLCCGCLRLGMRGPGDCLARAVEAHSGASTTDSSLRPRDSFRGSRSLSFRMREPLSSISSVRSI

[7] = biological target: Sphingosine 1-phosphate receptor 1 (Homo sapiens, UniProt P21453); type: functional;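 also: Tango beta-arrestin reporter U2OS cells stimulated with S1P near its EC80; inhibitor potency meaning antagonism of receptor activation by the natural agonist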
Chain of Sphingosine 1-phosphate receptor 1 (P21453 whole entry): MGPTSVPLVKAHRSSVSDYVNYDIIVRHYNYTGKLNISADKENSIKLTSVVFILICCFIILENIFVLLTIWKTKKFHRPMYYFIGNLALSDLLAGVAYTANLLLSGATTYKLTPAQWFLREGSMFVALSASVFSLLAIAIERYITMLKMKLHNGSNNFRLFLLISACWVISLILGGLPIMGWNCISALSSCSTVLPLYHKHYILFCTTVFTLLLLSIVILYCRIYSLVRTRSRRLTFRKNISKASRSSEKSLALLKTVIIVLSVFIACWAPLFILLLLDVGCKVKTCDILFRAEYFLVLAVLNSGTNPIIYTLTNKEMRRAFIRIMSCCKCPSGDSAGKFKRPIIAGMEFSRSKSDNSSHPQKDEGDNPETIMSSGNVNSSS

[8] = biological target: T4, Microphthalmia-associated transcription factor (Homo sapiens, UniProt O75030); experiment: TRPM1 promoter luciferase signal decrease, dose response, MITF inhibitor project, cell-based, SK-MEL-5, cherry-picked, set 3 (AID 493073); type: functional
T4 sequence (O75030 whole entry): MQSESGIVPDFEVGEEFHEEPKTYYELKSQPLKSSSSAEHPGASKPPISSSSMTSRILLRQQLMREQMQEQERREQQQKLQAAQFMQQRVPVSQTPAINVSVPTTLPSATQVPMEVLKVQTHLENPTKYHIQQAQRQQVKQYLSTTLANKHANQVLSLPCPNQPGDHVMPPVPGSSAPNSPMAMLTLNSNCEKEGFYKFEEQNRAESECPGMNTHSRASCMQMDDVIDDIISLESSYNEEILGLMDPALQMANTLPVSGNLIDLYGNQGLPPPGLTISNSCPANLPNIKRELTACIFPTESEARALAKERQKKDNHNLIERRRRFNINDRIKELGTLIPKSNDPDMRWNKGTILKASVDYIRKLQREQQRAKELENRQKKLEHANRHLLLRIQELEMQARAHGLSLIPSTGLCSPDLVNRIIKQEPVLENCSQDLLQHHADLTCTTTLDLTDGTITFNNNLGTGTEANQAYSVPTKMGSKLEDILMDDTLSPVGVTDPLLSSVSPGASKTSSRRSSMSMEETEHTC

[9] = tested on: HEK293; experiment: cytotoxicity in HEK293T NF-kB-Luc cells, SAR follow-up, cytotoxicity control for NF-kB activator project, cell-based, resazurin fluorescence (AID 493251); type: functional; settings: Homo sapiens
[10] = tested on: Jurkat; experiment: SAR Analysis of small molecule inhibitors of T-cell specific antigen receptor-induced NF-kB activation in a Jurkat cell line using a luminescence assay - Set 2. [Related pubchem assays (depositor defined):AID435003, AID435012, AID465]; type: functional, cell-based; settings: Homo sapiens
[11] = tested on: HEK293; experiment: SAR Analysis of small molecule inhibitors of T-cell specific antigen receptor-induced NF-kB activation in a HEK-293T cell line using a luminescence assay - Set 2. [Related pubchem assays (depositor defined):AID435003, AID435012, AID489026]; type: functional, cell-based; settings: Homo sapiens
[12] = biological target: Nuclear receptor subfamily 5 group A member 2 (Homo sapiens, UniProt O00482); type: functional, cell-based;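 also: HEK293T cells transfected with LRH-1 and a StAR promoter luciferase reporter; potency for inhibitors that lower LRH-1 driven reporter light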
Chain of Nuclear receptor subfamily 5 group A member 2 (O00482 whole entry): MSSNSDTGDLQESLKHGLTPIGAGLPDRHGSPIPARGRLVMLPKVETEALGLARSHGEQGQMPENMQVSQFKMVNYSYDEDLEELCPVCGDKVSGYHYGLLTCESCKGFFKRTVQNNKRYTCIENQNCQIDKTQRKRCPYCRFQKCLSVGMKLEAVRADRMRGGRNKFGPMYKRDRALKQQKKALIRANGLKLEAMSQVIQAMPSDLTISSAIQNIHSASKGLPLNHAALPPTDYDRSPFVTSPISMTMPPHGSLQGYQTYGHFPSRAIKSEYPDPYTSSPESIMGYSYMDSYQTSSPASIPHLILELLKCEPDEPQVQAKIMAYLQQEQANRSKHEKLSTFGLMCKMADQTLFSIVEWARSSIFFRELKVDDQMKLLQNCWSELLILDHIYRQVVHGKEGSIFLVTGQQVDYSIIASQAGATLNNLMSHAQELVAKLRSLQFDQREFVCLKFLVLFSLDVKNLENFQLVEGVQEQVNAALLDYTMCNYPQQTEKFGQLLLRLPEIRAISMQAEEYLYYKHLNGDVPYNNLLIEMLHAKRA

[13] = biological target: Steroidogenic factor 1 (Homo sapiens, UniProt Q13285); experiment: Counterscreen for inverse agonists of the liver receptor homolog-1 (LRH-1; NR5A2): Luminescence-based cell-based high throughput dose response assay to identify inverse agonists of the Steroidogenic Factor 1 Nuclear Receptor (SF1; NR5A1).; type: functional
Chain of Steroidogenic factor 1 (Q13285 whole entry): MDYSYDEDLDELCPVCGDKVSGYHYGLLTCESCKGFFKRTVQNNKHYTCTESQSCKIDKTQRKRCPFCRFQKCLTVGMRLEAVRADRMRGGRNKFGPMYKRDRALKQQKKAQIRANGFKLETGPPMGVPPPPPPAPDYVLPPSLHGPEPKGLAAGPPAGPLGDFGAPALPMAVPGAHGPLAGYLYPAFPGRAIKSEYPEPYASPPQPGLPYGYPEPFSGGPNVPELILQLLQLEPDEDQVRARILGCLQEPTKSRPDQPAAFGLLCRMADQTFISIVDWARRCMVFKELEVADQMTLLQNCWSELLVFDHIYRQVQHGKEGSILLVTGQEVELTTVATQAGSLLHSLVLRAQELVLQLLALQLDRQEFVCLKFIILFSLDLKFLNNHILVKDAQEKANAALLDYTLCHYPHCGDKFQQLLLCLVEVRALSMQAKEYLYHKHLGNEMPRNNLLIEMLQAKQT

[14] = StAR promoter reporter inhibition counter-screen, dose response, counter-screen for LRH-1 inverse agonist project, cell-based, luminescence, luciferase reporter (AID 651969); type: functional
[15] = biological target: SWI/SNF-related matrix-associated actin-dependent regulator of chromatin subfamily A member 2 (Homo sapiens, UniProt P51531); experiment: Luminescence-based cell-based high throughput dose response assay to identify activators of the function of SWI/SNF related, matrix associated, actin dependent regulator of chromatin, subfamily a, member 2 (SMARCA2, BRM).; type: functional
Chain of SWI/SNF-related matrix-associated actin-dependent regulator of chromatin subfamily A member 2 (P51531 whole entry): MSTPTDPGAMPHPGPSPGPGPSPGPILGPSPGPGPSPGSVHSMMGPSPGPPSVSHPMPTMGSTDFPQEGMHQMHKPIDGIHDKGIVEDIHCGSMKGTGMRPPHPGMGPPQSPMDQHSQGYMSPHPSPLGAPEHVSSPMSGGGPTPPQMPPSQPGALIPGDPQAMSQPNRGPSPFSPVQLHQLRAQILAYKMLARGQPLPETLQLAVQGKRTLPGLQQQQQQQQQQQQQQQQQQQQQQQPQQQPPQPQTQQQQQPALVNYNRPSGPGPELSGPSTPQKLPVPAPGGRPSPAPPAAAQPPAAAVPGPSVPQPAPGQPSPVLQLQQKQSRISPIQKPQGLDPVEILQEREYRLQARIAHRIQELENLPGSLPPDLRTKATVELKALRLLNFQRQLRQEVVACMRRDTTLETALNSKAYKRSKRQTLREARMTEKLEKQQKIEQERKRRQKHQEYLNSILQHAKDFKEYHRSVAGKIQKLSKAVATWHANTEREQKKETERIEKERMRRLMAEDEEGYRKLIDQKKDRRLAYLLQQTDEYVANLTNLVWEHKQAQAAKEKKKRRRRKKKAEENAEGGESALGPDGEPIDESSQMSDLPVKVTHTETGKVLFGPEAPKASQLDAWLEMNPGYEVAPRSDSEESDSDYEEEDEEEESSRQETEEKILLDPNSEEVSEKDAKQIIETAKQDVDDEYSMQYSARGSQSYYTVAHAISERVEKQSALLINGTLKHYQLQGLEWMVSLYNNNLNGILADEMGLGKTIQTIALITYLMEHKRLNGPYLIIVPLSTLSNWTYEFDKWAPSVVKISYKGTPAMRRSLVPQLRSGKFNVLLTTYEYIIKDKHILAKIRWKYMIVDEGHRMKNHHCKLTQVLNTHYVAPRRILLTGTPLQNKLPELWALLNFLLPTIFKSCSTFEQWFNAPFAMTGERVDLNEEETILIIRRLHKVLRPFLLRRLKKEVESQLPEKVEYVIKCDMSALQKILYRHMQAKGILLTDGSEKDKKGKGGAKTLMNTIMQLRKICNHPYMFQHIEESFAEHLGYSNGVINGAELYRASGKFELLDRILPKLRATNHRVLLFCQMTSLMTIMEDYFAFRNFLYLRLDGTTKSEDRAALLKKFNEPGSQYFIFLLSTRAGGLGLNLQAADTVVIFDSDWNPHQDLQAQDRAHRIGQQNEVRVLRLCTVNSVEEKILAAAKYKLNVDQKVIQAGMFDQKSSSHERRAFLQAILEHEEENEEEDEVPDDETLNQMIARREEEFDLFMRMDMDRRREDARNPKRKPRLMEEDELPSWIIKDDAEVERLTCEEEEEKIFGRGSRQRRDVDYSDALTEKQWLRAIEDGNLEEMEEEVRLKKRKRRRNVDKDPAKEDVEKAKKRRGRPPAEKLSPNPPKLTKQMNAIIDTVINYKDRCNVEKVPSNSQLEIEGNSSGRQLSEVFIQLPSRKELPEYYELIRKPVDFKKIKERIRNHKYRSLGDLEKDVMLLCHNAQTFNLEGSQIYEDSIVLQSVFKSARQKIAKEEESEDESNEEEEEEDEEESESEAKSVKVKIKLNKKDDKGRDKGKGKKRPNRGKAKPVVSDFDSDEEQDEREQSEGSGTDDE

[16] = Counterscreen for activators of the function of SWI/SNF related, matrix associated, actin dependent regulator of chromatin, subfamily a, member 2 (SMARCA2, BRM): Luminescence-based cell-based high throughput dose response assay to identify non-selective compounds using the VP16 reporter assay.; type: functional
[17] = biological target: Paired box protein Pax-8 (Homo sapiens, UniProt Q06710); experiment: inhibitors of PAX8-driven TPO luciferase reporter, dose response, RMG-I cells, cherry-pick (AID 687027); type: functional, cell-based;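 also: luciferase reporter driven by Pax8 target thyroperoxidase promoter measured by SteadyGlo luminescence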
Chain of Paired box protein Pax-8 (Q06710 whole entry): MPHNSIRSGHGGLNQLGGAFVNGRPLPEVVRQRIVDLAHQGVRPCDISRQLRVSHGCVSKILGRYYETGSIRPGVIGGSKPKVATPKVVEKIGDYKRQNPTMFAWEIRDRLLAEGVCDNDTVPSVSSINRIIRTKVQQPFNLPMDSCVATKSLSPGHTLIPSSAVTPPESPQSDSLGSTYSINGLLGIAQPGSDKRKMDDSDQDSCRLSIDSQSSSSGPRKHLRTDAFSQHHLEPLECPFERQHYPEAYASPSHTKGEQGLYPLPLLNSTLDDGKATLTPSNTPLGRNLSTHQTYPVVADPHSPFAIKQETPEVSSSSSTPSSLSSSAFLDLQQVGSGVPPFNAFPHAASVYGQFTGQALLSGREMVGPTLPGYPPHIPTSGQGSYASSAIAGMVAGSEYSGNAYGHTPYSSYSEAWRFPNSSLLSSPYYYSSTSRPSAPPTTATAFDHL

T1 sequence (P25098 whole entry): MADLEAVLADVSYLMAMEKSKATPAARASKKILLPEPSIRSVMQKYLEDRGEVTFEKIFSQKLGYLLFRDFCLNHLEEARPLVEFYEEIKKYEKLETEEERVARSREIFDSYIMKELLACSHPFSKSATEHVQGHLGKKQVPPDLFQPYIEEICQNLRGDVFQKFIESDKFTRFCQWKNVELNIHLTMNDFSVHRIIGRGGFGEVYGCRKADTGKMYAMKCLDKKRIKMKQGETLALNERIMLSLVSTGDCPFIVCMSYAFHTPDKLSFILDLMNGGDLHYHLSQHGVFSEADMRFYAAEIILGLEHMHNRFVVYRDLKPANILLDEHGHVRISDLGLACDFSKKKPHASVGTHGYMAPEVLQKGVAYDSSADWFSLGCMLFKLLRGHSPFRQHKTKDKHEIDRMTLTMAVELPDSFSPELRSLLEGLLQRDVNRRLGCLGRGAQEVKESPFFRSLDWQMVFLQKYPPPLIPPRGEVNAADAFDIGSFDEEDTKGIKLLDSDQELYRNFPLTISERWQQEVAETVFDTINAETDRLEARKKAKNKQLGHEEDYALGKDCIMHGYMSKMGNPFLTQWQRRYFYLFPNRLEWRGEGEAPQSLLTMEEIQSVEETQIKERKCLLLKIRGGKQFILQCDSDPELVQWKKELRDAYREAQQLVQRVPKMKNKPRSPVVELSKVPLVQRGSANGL

Row | Structure (SMILES) | EC50 [1] | EC50 [2] | IC50 [3] | EC50 [4] | EC50 [5] | IC50 [6] | IC50 [7] | AC50 [8] | IC50 [9] | IC50 [10] | IC50 [11] | IC50 [12] | IC50 [13] | IC50 [14] | EC50 [15] | EC50 [16] | AC50 [17]
1 | CCc1cccc(NC(=O)CCS(=O)(=O)c2ccc(Br)cc2)c1 | 58.3 µM (inactive) | 6.25 µM (active) | 6.99 µM (active) |  |  |  |  |  |  |  |  |  |  |  |  |  | 
2 | Cc1cc(NC(=O)c2ccc([N+](=O)[O-])o2)ccc1NC(=O)c1ccco1 |  |  |  | 4.78 µM (inconclusive) | > 38 µM (not active) | 1.87 µM (active) | 11.5 µM (not active) | 7.8 µM (active) | 42.4 µM (inactive) | 31.1 µM (inactive) | 27 µM (inactive) | 35.9 µM (inactive) | 0.766 µM (active) | 35.9 µM (inactive) | > 91.2 µM (inactive) | > 91.2 µM (inactive) | 5.2 µM (active)
